Results as given in US20220289679A1, “HETEROCYCLIC COMPOUND” (Takeda Pharmaceutical Company Limited, priority 2019, published 2022).

molecular target: T1, human GCS (glucosylceramide synthase) (Homo sapiens, UniProt Q16739); experiment: Glucosylceramide Synthase (GCS) Assay; assay type: biochemical; details: test compound 10 μM; microsome fraction of Expi293F cells expressing human GCS; 1.7 μM UDP-glucose, 3 μM C8 ceramide; room temperature 60 min; C8 glucosylceramide by Rapidfire MS/MS
T1 construct: made in house; host or cells: Expi293F cells (transient expression; microsome fraction)
T1 sequence (Q16739 1-394): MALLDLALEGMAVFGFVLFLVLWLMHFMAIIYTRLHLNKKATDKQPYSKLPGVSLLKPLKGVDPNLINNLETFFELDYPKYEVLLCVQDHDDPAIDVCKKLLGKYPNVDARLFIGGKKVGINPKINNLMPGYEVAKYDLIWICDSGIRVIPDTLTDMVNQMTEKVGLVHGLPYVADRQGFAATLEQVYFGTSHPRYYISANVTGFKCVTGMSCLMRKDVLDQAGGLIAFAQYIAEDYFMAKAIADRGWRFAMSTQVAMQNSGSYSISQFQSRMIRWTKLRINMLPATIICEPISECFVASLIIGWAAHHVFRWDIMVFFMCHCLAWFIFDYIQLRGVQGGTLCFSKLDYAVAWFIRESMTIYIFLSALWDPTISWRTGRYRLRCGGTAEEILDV
Experimental: In enzyme assay, a microsome fraction obtained by transient expression by Expi293F™ cells (catalog number: A14527, Thermo Fisher Scientific) was used as a glucosylceramide synthase source. Liposomal C8 ceramide and UDP-glucose were used as substrates. For each substrate concentration, 1.7 μM UDP-glucose, which is equal to the Km value, and 3 μM C8 ceramide were used. After the enzymatic reaction, the analysis was performed with Rapidfire MS/MS (API-4000™, SCIEX), and C8 glucosylceramide was quantified to evaluate the inhibitory activity of the test compound against glucosylceramide synthase activity.
PcDNA3.3TOPO vector (catalog number: K830001, Thermo Fisher Scientific) into which the human GCS gene was inserted was introduced into Expi293F™ Cells (catalog number: A14527, Thermo Fisher Scientific) by using ExpiFectamine™ 293 Transfection Kit (catalog number: A14525, Thermo Fisher Scientific). The cultured cells were dissolved in D-PBS (catalog number: 048-29805, Fuji Film Wako Pure Chemical Industries, Ltd.) containing 1 mM PMSF, and the solution was allowed to stand on ice for 30 minutes, and then subjected to cell disruption (homogenized). The disruption solution was centrifuged at 10,000×g for 20 minutes at 4° C., and the obtained supernatant was centrifuged at 142,400×g for 60 minutes at 4° C. The obtained precipitate was resuspended in a D-PBS solution containing 1 mM PMSF, and homogenized again to prepare as a microsome fraction. Protein quantification was performed by the CBB method.
A 1 mM compound solution prepared by dissolving the test compound in DMSO was added to a 384-well plate by 100 nL so that the final concentration of the test compound was 10 μM. Next, a substrate solution consisting of 3.4 μM UDP-glucose and 6 μM C8 ceramide was added by 5 μL, followed by an enzyme solution consisting of a 25 μg/mL microsome fraction by 5 μL. C8 ceramide was prepared from liposomes composed of 15 mol % C8 ceramide and 85 mol % dioleoyl phosphatidylcholine (1,2-dioleoyl-sn-glycero-3-phosphocholine: DOPC). The enzymatic reaction was carried out in a solution consisting of 20 mM tris-hydrochloric acid buffer (pH 7.5), 0.01% Tween 20, 0.01% bovine serum albumin and 1 mM dithiothreitol at room temperature for 60 min. Then, a solution consisting of 75% isopropanol and 1% formic acid containing 0.25 μM N-Octadecanoyl-D35-psichosine (catalog number: 1914, Matreya) as an internal standard substance was added by 60 μL to stop the enzymatic reaction. 5 μL of the centrifugal supernatant of the obtained reaction product was analyzed by Rapidfire MS/MS (Agilent Technologies) using API-4000™ (SCIEX), and the C8 glucosylceramide was quantified to evaluate the inhibitory activity of the test compound against the glucosylceramide synthase activity. The inhibitory activity of the test compound was evaluated when the C8 glucosylceramide level in the enzyme-free solution was considered as 100% inhibitory and the enzyme activity of the DMSO group in the absence of the compound was considered as 0% inhibitory.

Row | SMILES | GCS enzyme inhibitory rate at 10 μM (%)
1 | O=C(Nc1ccc(C(O)C2CC2)nc1)c1cccn(-c2ccc(F)cc2OCC(F)(F)F)c1=O (single isomer, unassigned) [Example 116, (R or S)-N-{6-[cyclopropyl(hydroxy)methyl]pyridin-3-yl}-1-[4-fluoro-2-(2,2,2-trifluoroethoxy)phenyl]-2-oxo-1,2-dihydropyridine-3-carboxamide] | 97%

same assay, conditions: test compound 10 μM; microsome fraction of Expi293F cells expressing human GCS; 1.7 μM UDP-glucose, 3 μM C8 ceramide; room temperature 60 min; C8 glucosylceramide by Rapidfire MS/MS; read-out: GCS enzyme inhibitory rate at 10 μM (%)

Row | SMILES | inhibition at 10 µM
2 | O=C(Nc1ccn(CC2CC2(F)F)n1)c1cccn(-c2ccc(F)cc2OCC(F)(F)F)c1=O (racemic) [Example 55, rac-N-{1-[(2,2-difluorocyclopropyl)methyl]-1H-pyrazol-3-yl}-1-[4-fluoro-2-(2,2,2-trifluoroethoxy)phenyl]-2-oxo-1,2-dihydropyridine-3-carboxamide] | 88%
3 | O=C(Nc1ccc(C(O)C2CC2)nc1)c1cccn(-c2ccc(F)cc2OCC(F)(F)F)c1=O (racemic) [Example 75, rac-N-{6-[cyclopropyl(hydroxy)methyl]pyridin-3-yl}-1-[4-fluoro-2-(2,2,2-trifluoroethoxy)phenyl]-2-oxo-1,2-dihydropyridine-3-carboxamide] | 96%
4 | O=C(Nc1ccc(C(O)C2CC2)nc1)c1cccn(-c2ccccc2OCC(F)(F)F)c1=O (racemic) [Example 76, rac-N-{6-[cyclopropyl(hydroxy)methyl]pyridin-3-yl}-2-oxo-1-[2-(2,2,2-trifluproethoxy)phenyl]-1,2-dihydropyridine-3-carboxamide] | 98%
5 | CC(O)(c1ccc(NC(=O)c2cccn(-c3ccnnc3OCC(F)(F)F)c2=O)cn1)C(F)(F)F (racemic) [Example 121, rac-2-oxo-1-[3-(2,2,2-trifluoroethoxy)pyridazin-4-yl]-N-[6-(1,1,1-trifluoro-2-hydroxypropan-2-yl)pyridin-3-yl]-1,2-dihydropyridine-3-carboxamide] | 90%
6 | CC(O)c1ccc(NC(=O)c2ccnn(-c3ccccc3OCC(F)(F)F)c2=O)cc1 (racemic) [Example 138, rac-N-[4-(1-hydroxyethyl)phenyl]-3-oxo-2-[2-(2,2,2-trifluoroethoxy)phenyl]-2,3-dihydropyridazine-4-carboxamide] | 99%
7 | Cc1cc(C(=O)Nc2ccc(C(C)O)cc2)c(=O)n(-c2ccccc2OCC(F)F)n1 (racemic) [Example 139, rac-2-[2-(2,2-difluoroethoxy)phenyl]-N-[4-(1-hydroxyethyl)phenyl]-6-methyl-3-oxo-2,3-dihydropyridazine-4-carboxamide] | 99%
8 | CC(O)c1ccc(NC(=O)c2ccnn(-c3ccccc3OCC(F)(F)F)c2=O)nc1 (racemic) [Example 140, rac-N-[5-(1-hydroxyethyl)pyridin-2-yl]-3-oxo-2-[2-(2,2,2-trifluoroethoxy)phenyl]-2,3-dihydropyridazine-4-carboxamide] | 87%
9 | O=C(Nc1ccc(C2CCCO2)cc1)c1ccnn(-c2ccccc2OCC(F)F)c1=O (racemic) [Example 144, rac-2-[2-(2,2-difluoroethoxy)phenyl]-3-oxo-N-[4-(oxolan-2-yl)phenyl]-2,3-dihydropyridazine-4-carboxamide] | 100%
10 | O=C(Nc1ccc(C2CCOC2)cc1)c1ccnn(-c2ccccc2OCC(F)F)c1=O (racemic) [Example 145, rac-2-[2-(2,2-difluoroethoxy)phenyl]-3-oxo-N-[4-(oxolan-3-yl)phenyl]-2,3-dihydropyridazine-4-carboxamide] | 99%
11 | CC(C)(O)c1ccc(NC(=O)c2cn(C3CCOC3)nc(-c3ccccc3OCC(F)F)c2=O)cc1 (racemic) [Example 193, rac-6-[2-(2,2-difluoroethoxy)phenyl]-N-[4-(2-hydroxypropan-2-yl)phenyl]-5-oxo-2-(oxolan-3-yl)-2,5-dihydropyridazine-4-carboxamide] | 99%
12 | O=C(Nc1ccc(C(O)(C(F)F)C(F)F)nc1)c1cn(C2CCOC2)nc(-c2ccccc2OCC(F)F)c1=O (racemic) [Example 195, rac-6-[2-(2,2-difluoroethoxy)phenyl]-5-oxo-2-(oxolan-3-yl)-N-[6-(1,1,3,3-tetrafluoro-2-hydroxypropan-2-yl)pyridin-3-yl]-2,5-dihydropyridazine-4-carboxamide] | 100%
13 | O=C(Nc1ccc(C(O)(C(F)F)C(F)F)cc1)c1cn(C2CCOC2)nc(-c2ccccc2OCC(F)F)c1=O (racemic) [Example 196, rac-6-[2-(2,2-difluoroethoxy)phenyl]-5-oxo-2-(oxolan-3-yl)-N-[4-(1,1,3,3-tetrafluoro-2-hydroxypropan-2-yl)phenyl]-2,5-dihydropyridazine-4-carboxamide] | 100%
14 | CC(O)c1cc(C(=O)Nc2ccc(OC(F)F)cc2)c(=O)n(-c2ccccc2OCC(F)(F)F)n1 (racemic) [Example 199, rac-N-[4-(difluoromethoxy)phenyl]-6-(1-hydroxyethyl)-3-oxo-2-[2-(2,2,2-trifluoroethoxy)phenyl]-2,3-dihydropyridazine-4-carboxamide] | 100%
15 | O=C(Nc1ccc(C(O)C2CC2)nc1)c1cccn(-c2ccc(F)cc2OCC(F)(F)F)c1=O (single isomer, unassigned) [Example 115, (R or S)-N-{6-[cyclopropyl(hydroxy)methyl]pyridin-3-yl}-1-[4-fluoro-2-(2,2,2-trifluoroethoxy)phenyl]-2-oxo-1,2-dihydropyridine-3-carboxamide] | 86%
16 | COc1ccccc1-n1c(C)ccc(C(=O)Nc2ccc(Oc3ccccc3)cc2)c1=O [Example 1, 1-(2-methoxyphenyl)-6-methyl-2-oxo-N-(4-phenoxyphenyl)-1,2-dihydropyridine-3-carboxamide] | 71%
17 | COc1ccccc1-n1cccc(C(=O)Nc2ccc(Oc3ccccc3)cc2)c1=O [Example 2, 1-(2-methoxyphenyl)-2-oxo-N-(4-phenoxyphenyl)-1,2-dihydropyridine-3-carboxamide] | 95%
18 | COc1cc(F)ccc1-n1cccc(C(=O)Nc2ccc(Oc3ccccc3)cc2)c1=O [Example 3, 1-(4-fluoro-2-methoxyphenyl)-2-oxo-N-(4-phenoxyphenyl)-1,2-dihydropyridine-3-carboxamide] | 92%
19 | O=C(Nc1ccc(Oc2ccccc2)cc1)c1cccn(-c2ccccc2N2CCOCC2)c1=O [Example 4, 1-[2-(morpholin-4-yl)phenyl]-2-oxo-N-(4-phenoxyphenyl)-1,2-dihydropyridine-3-carboxamide] | 93%
20 | COc1cc(F)ccc1-n1cccc(C(=O)Nc2ccc(OCC(F)(F)F)nc2)c1=O [Example 5, 1-(4-fluoro-2-methoxyphenyl)-2-oxo-N-[6-(2,2,2-trifluoroethoxy)pyridin-3-yl]-1,2-dihydropyridine-3-carboxamide] | 68%
21 | COc1cc(F)ccc1-n1cccc(C(=O)Nc2ccc(OC(F)(F)F)cc2)c1=O [Example 6, 1-(4-fluoro-2-methoxyphenyl)-2-oxo-N-[4-(trifluoromethoxy)phenyl]-1,2-dihydropyridine-3-carboxamide] | 52%
22 | COc1cc(F)ccc1-n1cccc(C(=O)Nc2ccc(C3CC3)nc2)c1=O [Example 7, N-(6-cyclopropylpyridin-3-yl)-1-(4-fluoro-2-methoxyphenyl)-2-oxo-1,2-dihydropyridine-3-carboxamide] | 57%
